In this series the test system is rats. Particulars: rat, in vivo, 30 mg/kg.

Regarding `CC[C@H](C)[C@@H]1C(=O)N[C@H](C2Cc3ccccc3C2)C(=O)N1[C@@H](C(=O)N1CCOCC1)c1coc(C)n1` [Example 1, (3R,6R)-3-(2,3-dihydro-1H-inden-2-yl)-1-[(1R)-1-(2-methyl-1,3-oxazol-4-yl)-2-(4-morpholinyl)-2-oxoethyl]-6-[(1S)-1-methylpropyl]-2,5-piperazinedione], the adverse toxicological effects entry is given as “no adverse toxicological effects were observed”.

For the origin of these results see US9452169B2, “Substituted diketopiperazines and their use as oxytocin antagonists” (Glaxo Group Limited, priority 2003, dated 2016).
